ChEMBL document CHEMBL5244251, “Recent researches for dual Aurora target inhibitors in antitumor field” (Eur J Med Chem, 2020)
Blank lines part the entries; values can stand above or below the compound they belong to.

What was measured:
A-375 = assay: Antitumor activity against human A-375 cells xenografted in mouse assessed as tumor growth inhibition; assay type: functional
Aurora kinase C = target: T1, Aurora kinase C (Homo sapiens, UniProt Q9UQB9); assay: Inhibition of human Aurora C
T1 sequence (Q9UQB9 whole entry): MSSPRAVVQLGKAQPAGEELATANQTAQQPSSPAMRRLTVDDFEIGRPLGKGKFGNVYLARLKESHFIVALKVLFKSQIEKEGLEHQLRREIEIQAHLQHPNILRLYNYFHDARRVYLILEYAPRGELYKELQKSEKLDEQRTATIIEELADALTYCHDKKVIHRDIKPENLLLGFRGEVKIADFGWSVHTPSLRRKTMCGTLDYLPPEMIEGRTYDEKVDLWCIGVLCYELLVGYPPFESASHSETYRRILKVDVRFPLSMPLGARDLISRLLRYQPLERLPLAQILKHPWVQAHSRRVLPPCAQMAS

[1] = Inhibition of Xenopus laevis Aurora kinase B
[2] = Antitumor activity against human Fuji cells xenografted in mouse assessed as reduction in tumor volume; assay type: functional; design: scale not given: the % may be the effect or the level left
[3] = Antitumor activity against human Fuji cells xenografted in mouse assessed as reduction in tumor weight; assay type: functional; design: scale not given: the % may be the effect or the level left

SMILES: Nc1nc(Nc2ccc(S(N)(=O)=O)cc2)nn1C(=O)c1c(F)cccc1F [JNJ-7706621]
TGI (A-375): 95%

IC50 (Aurora kinase C): 15 nM | IC50 [1]: 3 nM
SMILES: CCNC(=O)C#Cc1ccc2c(c1)NC(=O)/C2=C(\Nc1ccc(CN(C)C)cc1)c1ccccc1

SMILES: CN(C)S(=O)(=O)c1ccc2c(c1)/C(=C/c1cc3c([nH]1)CCCC3)C(=O)N2
Activity [2]: 16% | Activity [3]: 13%
